Laboratory results published in patent publication US20260097004A1, “PHARMACEUTICAL COMPOSITION FOR TREATING MAST CELL-MEDIATED INFLAMMATORY DISEASES” (priority 2022, published 2026).

What was measured:
LAD2 mast cells = assay: β-hexosaminidase assay of mast cell degranulation stimulated by SP; format: cell-based; details: SP stimulating experiment, FIG. 1
Method: An experimental method using a β-hexosaminidase assay comprises the following steps: • 1. a PNAG/HEPES buffer/0.1% Triton-100/glycine solution was prepared at a normal temperature; • 2. LAD2 cell was taken out from an incubator at 37° C. and cell count was read, and then an appropriate amount of cell suspension was taken according to experimental cell requirements (estimated based on 5000-10000/well); • 3. the LAD2 cell suspension was centrifuged for 5 min on a centrifuge at 4° C. at […], and then supernatant was discarded; • 4. cells were evenly mixed in the solution after HEPES buffer was added; • 5. the cell suspension was transferred to a 96-well plate, with 80 ul per well; • 6. a to-be-tested drug Atovaquone was added to a corresponding position according to experiment design, the positions of a positive control SP (neuropeptide substance P), a negative control QWF (MRGPRX2 receptor antagonist) and a blank control were reserved, and each drug was administrated for three repetitions; • 7. the cells were co-incubated with the drug for 30 min; • 8. […]
Detection of m Absorbance
• 12. the degranulation percentage of mast cells was calculated.
According to a formula: degranulation percentage-2×absorbance of supernatant plate/(absorbance of supernatant plate+[…]absorbance of cell lysis plate)×100%

LAD2 cells = assay: Intracellular calcium ion flow experiment (calcium imaging, Fluo-3); format: cell-based; details: Atovaquone at different concentrations (0, 1, 10, 100 nM and 1 μM), incubation 30 min; FIG. 3
Method: (§1) An incubation buffer was composed of: 0.5 μl of Fluo-3, 2 μl of Pluronic F-127 and 997.5 μl of CIB (calcium imaging buffer: 125 mM NaCl, 3 mM KCl, 2.5 mM CaCl2, 0.6 mM MgCl2, 10 mM HEPES, 20 mM glucose, 1.2 mM NaHCO3 and 20 mM sucrose, and pH=7.4). Different concentrations (0, 1, 10, 100 nM and 1 μM) of Atovaquone were prepared in the incubation buffer, and an incubation buffer solution without Atovaquone was used as a negative control. LAD2 cells were washed twice with CIB, and then a desired incubation buffer solution was added. After incubation for 30 min, the cells were washed twice with CIB, and then inoculated into a 96-well plate for calcium imaging. For calcium imaging, the cells were magnified 200× and a photo was obtained per second under blue light. After a substance was injected, the cells were confirmed as being responsive if [Ca^2+] rose by at least 50%.

MrgA1 = biological target: T1, MrgA1 (Mus musculus, UniProt Q91WW5); assay: Calcium ion flow when substance P acts on MrgA1; format: cell-based; details: substance P 10 μM acted on MrgA1; cells with vs without Atovaquone; FIG. 2
T1 sequence (Q91WW5 1-304): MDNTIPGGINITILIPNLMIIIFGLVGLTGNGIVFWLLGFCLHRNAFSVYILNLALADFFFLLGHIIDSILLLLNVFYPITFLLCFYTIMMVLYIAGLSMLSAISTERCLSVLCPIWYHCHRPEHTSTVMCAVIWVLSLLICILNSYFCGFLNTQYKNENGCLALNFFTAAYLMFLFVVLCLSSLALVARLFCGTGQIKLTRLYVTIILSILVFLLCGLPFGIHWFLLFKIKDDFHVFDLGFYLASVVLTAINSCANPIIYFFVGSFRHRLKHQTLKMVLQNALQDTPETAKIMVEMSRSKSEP
Method: as §1
(§2) FIG. 2 is a dynamic observation graph showing a calcium ion flow change when a substance P acted on different receptors, i.e., a schematic representation of the substance P acting on MrgA1, MrgX2 and NKIR (5 nM acted on NKIR, 50 nM acted on MrgX2 and 10 μM acted on MrgA1). This image set was photographed every 5 s from left to right for 120 s. In each group of graphs, a column represented cells with Atovaquone, the next column represented cells without Atovaquone.

NKIR = NKIR (Homo sapiens, UniProt P25103); assay: Calcium ion flow when substance P acts on NKIR; format: cell-based; details: substance P 5 nM acted on NKIR; cells with vs without Atovaquone; FIG. 2
NKIR, sequence (P25103 whole entry): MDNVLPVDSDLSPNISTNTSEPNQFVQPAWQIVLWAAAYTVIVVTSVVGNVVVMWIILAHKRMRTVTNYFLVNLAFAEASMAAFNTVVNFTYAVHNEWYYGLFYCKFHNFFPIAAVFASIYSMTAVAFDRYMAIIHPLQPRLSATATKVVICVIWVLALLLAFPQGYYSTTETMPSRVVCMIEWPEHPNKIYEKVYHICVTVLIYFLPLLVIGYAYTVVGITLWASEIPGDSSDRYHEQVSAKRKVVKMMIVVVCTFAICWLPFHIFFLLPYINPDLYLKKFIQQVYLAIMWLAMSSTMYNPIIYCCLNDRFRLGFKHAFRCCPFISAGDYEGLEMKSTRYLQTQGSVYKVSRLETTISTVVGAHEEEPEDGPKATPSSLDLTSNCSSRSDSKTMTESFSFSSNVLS
Method: as §1, §2

[1] = cited from earlier work

## O=C1C(O)=C([C@H]2CC[C@H](c3ccc(Cl)cc3)CC2)C(=O)c2ccccc21 [Atovaquone]
LAD2 mast cells
  inhibition of LAD2 mast cell degranulation compared with QWF: far superior to QWF
LAD2 mast cells; cells co-incubated with drug 30 min, then SP 30 min
  degranulation of LAD2 mast cells (degranulation percentage): obviously improved
LAD2 cells
  calcium ion flow: reduction in calcium ion flow
MrgA1
  effect on MrgA1 mediated calcium ion flow: inferior to that on MrgX2
NKIR
  effect on NKIR mediated calcium ion flow: inferior to that on MrgX2
[1]; after long-term use
  drug dependence: no significant drug dependence phenomenon
[1]; users in a population
  side effects: low side effect characteristics
